Source: the supplement of paper PMC11451515

Tested on: SEM cells
Assay: cell viability relative to DMSO control; higher = less cytotoxic
Settings: 48 h
Procedure, shortened: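 NOMO1 or SEM (500 cells/well) or P12-Ichikawa (1000 cells/well) leukemia cells were adapted for at least four passages in each medium. They were seeded in 1536-well plates (5 μl) and pin-dosed with library compounds in DMSO over an 11-point threefold series, 47 μM to 0.79 nM. CellTiter-Glo One luminescence was read after 48 h at 37°C. Viability is the per-plate percentage relative to DMSO wells, with cell-free wells as background.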

[1] = HPLM + 10% dialyzed FBS, 0.000781 µM
[2] = HPLM + 10% dialyzed FBS, 0.00234 µM
[3] = HPLM + 10% dialyzed FBS, 0.00702 µM
[4] = HPLM + 10% dialyzed FBS, 0.0211 µM
[5] = HPLM + 10% dialyzed FBS, 0.0632 µM
[6] = HPLM + 10% dialyzed FBS, 0.19 µM
[7] = HPLM + 10% dialyzed FBS, 0.569 µM
[8] = HPLM + 10% dialyzed FBS, 1.71 µM
[9] = HPLM + 10% dialyzed FBS, 5.12 µM
[10] = HPLM + 10% dialyzed FBS, 15.4 µM
[11] = HPLM + 10% dialyzed FBS, 46.1 µM
[12] = RPMI 5 mM glucose + 10% FBS, 0.000781 µM
[13] = RPMI 5 mM glucose + 10% FBS, 0.00234 µM
[14] = RPMI 5 mM glucose + 10% FBS, 0.00702 µM
[15] = RPMI 5 mM glucose + 10% FBS, 0.0211 µM
[16] = RPMI 5 mM glucose + 10% FBS, 0.0632 µM
[17] = RPMI 5 mM glucose + 10% FBS, 0.19 µM
[18] = RPMI 5 mM glucose + 10% FBS, 0.569 µM
[19] = RPMI 5 mM glucose + 10% FBS, 1.71 µM
[20] = RPMI 5 mM glucose + 10% FBS, 5.12 µM
[21] = RPMI 5 mM glucose + 10% FBS, 15.4 µM
[22] = RPMI 5 mM glucose + 10% FBS, 46.1 µM
[23] = RPMI 5 mM glucose + 10% dialyzed FBS, 0.000781 µM
[24] = RPMI 5 mM glucose + 10% dialyzed FBS, 0.00234 µM
[25] = RPMI 5 mM glucose + 10% dialyzed FBS, 0.00702 µM
[26] = RPMI 5 mM glucose + 10% dialyzed FBS, 0.0211 µM
[27] = RPMI 5 mM glucose + 10% dialyzed FBS, 0.0632 µM
[28] = RPMI 5 mM glucose + 10% dialyzed FBS, 0.19 µM
[29] = RPMI 5 mM glucose + 10% dialyzed FBS, 0.569 µM
[30] = RPMI 5 mM glucose + 10% dialyzed FBS, 1.71 µM
[31] = RPMI 5 mM glucose + 10% dialyzed FBS, 5.12 µM
[32] = RPMI 5 mM glucose + 10% dialyzed FBS, 15.4 µM
[33] = RPMI 5 mM glucose + 10% dialyzed FBS, 46.1 µM

SMILES	cell viability [1] [%]	cell viability [2] [%]	cell viability [3] [%]	cell viability [4] [%]	cell viability [5] [%]	cell viability [6] [%]	cell viability [7] [%]	cell viability [8] [%]	cell viability [9] [%]	cell viability [10] [%]	cell viability [11] [%]	cell viability [12] [%]	cell viability [13] [%]	cell viability [14] [%]	cell viability [15] [%]	cell viability [16] [%]	cell viability [17] [%]	cell viability [18] [%]	cell viability [19] [%]	cell viability [20] [%]	cell viability [21] [%]	cell viability [22] [%]	cell viability [23] [%]	cell viability [24] [%]	cell viability [25] [%]	cell viability [26] [%]	cell viability [27] [%]	cell viability [28] [%]	cell viability [29] [%]	cell viability [30] [%]	cell viability [31] [%]	cell viability [32] [%]	cell viability [33] [%]
CCOc1cc(CC(=O)N[C@@H](CC(C)C)c2ccccc2N2CCCCC2)ccc1C(=O)O	83.9	104	121	106	116	109	122	117	132	125	119	103	110	109	109	106	108	118	134	127	129	123	105	113	123	127	109	114	119	137	130	128	134
NC/1=N/C(=O)N(/C=N1)[C@@H]2O[C@H](CO)[C@@H](O)[C@H]2O	85.7	107	117	106	76.2	100	104	105	75.4	24.5	3.65	95.7	107	99.5	102	70.9	110	90.4	94.8	75.1	35.3	7.85	90.8	87.8	82	90.1	69.7	93.5	82.3	74.6	38.9	6.43	3.29
CC/1=C(/N2[C@H](SC1)[C@H](NC(=O)C(N)C3=CC=CC=C3)C2=O)C(O)=O (some centres undefined)	99.3	113	119	110	108	120	120	124	114	126	131	128	118	117	132	155	138	129	141	136	122	131	115	119	137	143	129	140	132	142	132	130	134
OCc1ccc(-c2ccc(-c3ccc(CO)s3)o2)s1	117	118	94.3	115	107	103	104	103	88.6	77.7	93.8	87.3	105	83.8	81.5	79.1	87.8	79.3	80.6	77.1	61.3	66.7	114	124	95.7	113	119	105	110	99.4	83.9	85.8	114
CC1(C)C(N(O)C(=O)Nc2ccc(Cl)cc2)N(c2ccc(Cl)cc2)C(=O)N1CC(=O)N/N=C/C=C/c1ccc([N+](=O)[O-])o1 (centres undefined)	128	117	120	119	122	81.4	110	117	52.7	107	3.81	–	–	–	–	–	–	–	–	–	–	–	114	115	111	113	121	91.6	104	99.1	30.9	80.8	2.64
CC[C@]1(O)C[C@@H]2CN(CCc3c([nH]c4ccccc34)[C@@](C(=O)OC)(c3cc4c(cc3OC)N(C)[C@H]3[C@@](O)(C(N)=O)[C@H](O)[C@]5(CC)C=CCN6CC[C@]43[C@@H]65)C2)C1	123	110	114	106	89.2	43.2	26.3	20.5	20	15.7	6.67	–	–	–	–	–	–	–	–	–	–	–	118	104	124	124	97.8	44.8	26.6	24.3	20.4	16.3	5.01
CO/N=C(\C(=O)N[C@@H]1C(=O)N2C(C(=O)OCOC(=O)C(C)(C)C)=C(/C=C\c3scnc3C)CS[C@H]12)c1csc(N)n1	75.6	89.4	86.9	80.8	93.7	101	94.8	97.3	86.7	90.6	70.4	87.1	90.7	91.4	76.6	89	103	91.5	98.9	86.5	65.2	58.5	75.3	101	108	93.7	119	102	99.4	125	105	73	62.9
COc1cc(C)c(Sc2cnc(NC(=O)c3ccc(CNC(C)C(C)C)cc3)s2)cc1C(=O)N1CCN(C(C)=O)CC1 (centres undefined)	119	134	124	118	96.6	105	96.2	104	81.7	42	108	115	135	111	129	109	112	110	112	73.9	43.4	121	124	141	116	118	121	118	109	102	79.9	49.7	132
O=C(/C=C/c1ccc(O)cc1)c1ccc(O)cc1O	113	112	131	108	141	131	120	109	124	81.2	26.6	118	122	134	125	124	133	106	116	111	79.6	17	98	94.4	118	91.9	121	105	100	91	81.8	59.5	9.38
OCCn1cc(-c2cnc3nnn(Cc4ccc5ncccc5c4)c3n2)cn1	102	107	99.5	98.1	97.9	89.3	89.5	91.5	85.3	72.1	38.5	122	138	124	133	120	116	109	90.7	82.1	73.9	26.6	84.6	97.9	102	108	107	106	118	97.3	82	60.5	33.4
O=C(Nc1cccnn1)N1CCC(=Cc2cccc(Oc3ccc(C(F)(F)F)cn3)c2)CC1	81.8	86.8	84.4	21.1	94.9	98	92.5	85	90	81.3	75.6	104	115	112	17.1	119	127	121	139	118	103	87.8	92.8	92.6	89.8	17	113	112	106	98.4	93.7	78.3	55.8
O=C1NC(=O)/C(=C/c2ccc(-c3ccc(F)cc3O)o2)S1	127	118	110	122	123	111	111	102	124	94.1	87.1	–	–	–	–	–	–	–	–	–	–	–	114	129	120	122	112	121	111	84.6	87.3	98.6	74.8
OC1=CC2=C(C(=C1)O)C(=O)\C(=C(/O2)C3=CC(=C(O)C=C3)O)O	89.1	84.2	93.4	99.4	98.2	94.4	97.4	110	111	94.8	75.1	79.7	97.7	106	96.1	99.6	109	106	105	108	102	71.5	83.6	85.2	92.1	88.3	111	104	115	101	92.6	104	69.8
Cc1ccc2c(c1)c1c(n2CCc2ccc(C)nc2)CCN(C)C1	110	124	120	122	133	131	117	121	135	120	106	116	117	145	147	148	155	140	127	138	134	109	–	–	–	–	–	–	–	–	–	–	–
CNC(=O)[C@H](CC/1=C/N=C\2/C=C\C\C=C12)NC(=O)[C@H](CC(C)C)CC(=O)NO	104	103	108	111	120	104	112	118	120	105	101	111	134	122	133	117	118	116	110	132	120	114	95	99.2	104	100	113	88.9	99.7	102	94.4	102	90.1
CN(C)C1=C(Br)C=C(C=C1)C\2NC3=C(\C4=C2C(=O)CC(C)(C)C4)C5=CC=CC=C5C=C3 (centres undefined)	113	119	125	130	131	131	113	120	128	120	97.8	105	115	137	121	132	123	107	131	116	109	100	93.1	112	122	128	127	127	93.1	114	126	118	85.4
